#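 Following 48 hours of exposure in 96-well plates, responses at five concentrations were used to interpolate endpoints linearly. Abbreviation: GI50, concentration required for 50% inhibition of growth.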 The source made the active and inactive calls. Rule as the data show it: active = GI50 up to about 1.1 µM and inactive = higher.
# Experiments:
# Experiment in all cases: NCI anticancer screen, dose series, 48 h
# DMS-114 = test system: DMS-114
# UACC-257 = test system: UACC-257
# LXFL 529 = test system: LXFL 529
# NCI-H226 = test system: NCI-H226
# LOX IMVI = test system: LOX IMVI
# SNB-78 = test system: SNB-78
# KM-20L2 = test system: KM-20L2
# RXF 393 = test system: RXF 393
# Malme-3M = test system: Malme-3M
# U-251 = test system: U-251
# HT-29 = test system: HT-29
# HOP-62 = test system: HOP-62
# SNB-19 = test system: SNB-19
# HL-60 = test system: HL-60
# NCI-H460 = test system: NCI-H460
# SK-MEL-5 = test system: SK-MEL-5
# DLD-1 = test system: DLD-1
# HCT-15 = test system: HCT-15
# SK-OV-3 = test system: SK-OV-3
# OVCAR-4 = test system: OVCAR-4
# HOP-18 = test system: HOP-18
# SN12C = test system: SN12C
# SNB-75 = test system: SNB-75
# OVCAR-3 = test system: OVCAR-3
# SR = test system: SR
# SK-MEL-28 = test system: SK-MEL-28
# UACC-62 = test system: UACC-62
# HOP-92 = test system: HOP-92
# SF-539 = test system: SF-539
# OVCAR-8 = test system: OVCAR-8
# ACHN = test system: ACHN
# A549 = test system: A549
# XF498 = test system: XF498
# 786-0 = test system: 786-0
# EKVX = test system: EKVX
# DMS-273 = test system: DMS-273
# CCRF-CEM = test system: CCRF-CEM
# UO-31 = test system: UO-31
# SW-620 = test system: SW-620
# OVCAR-5 = test system: OVCAR-5
# NCI-H23 = test system: NCI-H23
# M19-MEL = test system: M19-MEL
# SF-295 = test system: SF-295
# M14 = test system: M14
# RPMI-8226 = test system: RPMI-8226
# A498 = test system: A498
# CAKI-1 = test system: CAKI-1
# MOLT-4 = test system: MOLT-4
# COLO 205 = test system: COLO 205
# HCC 2998 = test system: HCC 2998
# IGROV-1 = test system: IGROV-1
# HCT-116 = test system: HCT-116
# KM12 = test system: KM12
# K562 = test system: K562
# TK-10 = test system: TK-10
# SF-268 = test system: SF-268
smiles,measurement,setting,value
COC(=O)C1C(=O)O[C@@H](c2ccc(OC)cc2OC)C1C(=O)OC (stereo partly specified),GI50,DMS-114,> 100 µM (inactive)
same,GI50,UACC-257,> 100 µM (inactive)
same,GI50,LXFL 529,> 100 µM (inactive)
same,GI50,NCI-H226,> 100 µM (inactive)
same,GI50,LOX IMVI,> 100 µM (inactive)
same,GI50,SNB-78,> 100 µM (inactive)
same,GI50,KM-20L2,> 100 µM (inactive)
same,GI50,RXF 393,> 100 µM (inactive)
same,GI50,Malme-3M,> 100 µM (inactive)
same,GI50,U-251,> 100 µM (inactive)
same,GI50,HT-29,> 100 µM (inactive)
same,GI50,HOP-62,> 100 µM (inactive)
same,GI50,SNB-19,> 100 µM (inactive)
same,GI50,HL-60,> 100 µM (inactive)
same,GI50,NCI-H460,> 100 µM (inactive)
same,GI50,SK-MEL-5,> 100 µM (inactive)
same,GI50,DLD-1,> 100 µM (inactive)
same,GI50,HCT-15,> 100 µM
same,GI50,SK-OV-3,> 100 µM (inactive)
same,GI50,OVCAR-4,> 100 µM (inactive)
same,GI50,HOP-18,> 100 µM (inactive)
same,GI50,SN12C,> 100 µM (inactive)
same,GI50,SNB-75,> 100 µM (inactive)
same,GI50,OVCAR-3,> 100 µM (inactive)
same,GI50,SR,> 100 µM (inactive)
same,GI50,SK-MEL-28,> 100 µM (inactive)
same,GI50,UACC-62,> 100 µM (inactive)
same,GI50,HOP-92,> 100 µM (inactive)
same,GI50,SF-539,> 100 µM (inactive)
same,GI50,OVCAR-8,> 100 µM (inactive)
same,GI50,ACHN,> 100 µM (inactive)
same,GI50,A549,> 100 µM (inactive)
same,GI50,XF498,> 100 µM (inactive)
same,GI50,786-0,> 100 µM (inactive)
same,GI50,EKVX,> 100 µM (inactive)
same,GI50,DMS-273,> 100 µM (inactive)
same,GI50,CCRF-CEM,> 100 µM (inactive)
same,GI50,UO-31,> 100 µM (inactive)
same,GI50,SW-620,> 100 µM (inactive)
same,GI50,OVCAR-5,> 100 µM (inactive)
same,GI50,NCI-H23,> 100 µM (inactive)
same,GI50,M19-MEL,> 100 µM (inactive)
same,GI50,SF-295,> 100 µM (inactive)
same,GI50,M14,> 100 µM (inactive)
same,GI50,RPMI-8226,> 100 µM (inactive)
same,GI50,A498,> 100 µM (inactive)
same,GI50,CAKI-1,> 100 µM (inactive)
same,GI50,MOLT-4,> 100 µM (inactive)
same,GI50,COLO 205,> 100 µM (inactive)
same,GI50,HCC 2998,> 100 µM (inactive)
same,GI50,IGROV-1,> 100 µM (inactive)
same,GI50,HCT-116,> 100 µM (inactive)
same,GI50,KM12,> 100 µM (inactive)
same,GI50,K562,> 100 µM (inactive)
same,GI50,TK-10,> 100 µM (inactive)
same,GI50,SF-268,> 100 µM (inactive)

# From ChEMBL document CHEMBL1201862, “PubChem BioAssay data set” (2004)
